These results are taken from PubChem BioAssay (NCI).

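These data come from cells grown in 96-well plates and exposed to compound for 48 hours at five concentrations. At the GI50, growth is halved. Definition used: TGI = concentration required for complete inhibition of growth.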

Among the test systems are A549 NSCLC; EKVX NSCLC; HCT-15 colon; OVCAR-8 ovarian; RPMI-8226 leukemia; SK-MEL-5 melanoma; SR leukemia; MCF7 breast; NCI/ADR-RES ovarian.
Holding throughout (assay): DTP human tumour cell line panel, 48 h

As for `COC(=O)[C@]1(C)C(OC)=CC(=O)C2C1[C@H]1CCC[C@@H]21` (stereo partly drawn), the TGI in the assay with A549 NSCLC, with EKVX NSCLC, in the assay on HCT-15 colon, in the assay with OVCAR-8 ovarian, in the assay on RPMI-8226 leukemia and with SK-MEL-5 melanoma was over 100 µM throughout. The molecule also yielded a TGI with SR leukemia of over 100 µM.

Turning to `COc1ccccc1NC(=O)C1=C(C)NC(C)=C(C(=O)Nc2ccccc2OC)C1c1ccc(N(C)C)cc1`, the concentration for total growth inhibition (TGI) was over 100 µM in the assay with A549 NSCLC; over 100 µM with EKVX NSCLC; 77.3 µM in the assay with OVCAR-8 ovarian; 55.4 µM in the assay on RPMI-8226 leukemia; 96.7 µM in the assay with SK-MEL-5 melanoma.

Consider `COc1cc(/C=C/c2ccc(OC)c(OC)c2OC)cc(OC)c1OC`, for which the TGI with A549 NSCLC was over 88.9 µM; in the assay with EKVX NSCLC, over 70.8 µM; in the assay on HCT-15 colon it was over 57.2 µM; with OVCAR-8 ovarian it was over 87.1 µM; in the assay on RPMI-8226 leukemia, 37.1 µM; with SK-MEL-5 melanoma, 28.5 µM. The same molecule had a TGI in the assay with SR leukemia of 78.5 µM.

For the molecule `COC(=O)C(CC(=O)c1c[nH]c2ccccc12)c1c[nH]c2ccccc12` (stereo not drawn), the TGI with A549 NSCLC came to 60.1 µM; in the assay with EKVX NSCLC, 74.1 µM; with HCT-15 colon it was 36.3 µM; in the assay with OVCAR-8 ovarian it was 65 µM; with RPMI-8226 leukemia, 44.8 µM; in the assay with SK-MEL-5 melanoma it was 32.2 µM.

As for `CS(=O)(=O)NNS(=O)(=O)c1ccc(Cl)cc1`, the TGI in the assay with A549 NSCLC, in the assay on EKVX NSCLC, in the assay with HCT-15 colon, in the assay on OVCAR-8 ovarian, in the assay with RPMI-8226 leukemia and in the assay with SK-MEL-5 melanoma was over 100 µM in each case. The molecule also yielded a TGI with SR leukemia of over 100 µM.

For `CCOC(=O)c1c(-c2ccccc2)c(C(OC(c2ccccc2)c2c(-c3ccccc3)c(C(=O)OCC)n3ccccc23)c2ccccc2)c2ccccn12` (stereo not drawn), the concentration for total growth inhibition (TGI) with A549 NSCLC, with EKVX NSCLC, in the assay with HCT-15 colon, in the assay with OVCAR-8 ovarian, in the assay on RPMI-8226 leukemia and with SR leukemia was over 100 µM in each case.

As for `CCN(CC)CCOc1c(OC)c(Br)cc2c(C)c(C(=O)OC)oc12`, the GI50 was 10 µM with A549 NSCLC; 1.55 µM with EKVX NSCLC; 0.864 µM in the assay on HCT-15 colon; 1.63 µM in the assay on MCF7 breast; 6.45 µM with NCI/ADR-RES ovarian; 2.13 µM in the assay with OVCAR-8 ovarian. The results for the GI50 in the assay with RPMI-8226 leukemia, with SK-MEL-5 melanoma and with SR leukemia were 0.186 µM, 0.818 µM and 0.542 µM, respectively. Further, the TGI in the assay on A549 NSCLC was found to be 20.2 µM; in the assay on EKVX NSCLC, 5.01 µM; with HCT-15 colon, 2.46 µM; in the assay with MCF7 breast it was 5.74 µM; in the assay on NCI/ADR-RES ovarian, 12.8 µM; with OVCAR-8 ovarian, 7.88 µM. Moreover, the TGI is 0.834 µM in the assay on RPMI-8226 leukemia, 1.53 µM in the assay with SK-MEL-5 melanoma and 1.31 µM in the assay on SR leukemia.

For the molecule `ClCc1ccc(C2OCCO2)cc1`, the TGI in the assay with A549 NSCLC was over 80.7 µM; with EKVX NSCLC it was over 63 µM; in the assay on HCT-15 colon, 34.7 µM; in the assay on OVCAR-8 ovarian, 36.1 µM; with RPMI-8226 leukemia it was 74.6 µM; in the assay with SK-MEL-5 melanoma it was over 55.5 µM. The TGI in the assay with SR leukemia is over 79.7 µM.

As to `COC(=O)c1ccc(C(=O)OC)c2nc3cc(C)ccc3nc12`, the TGI in the assay on A549 NSCLC, in the assay with EKVX NSCLC, with HCT-15 colon, in the assay with OVCAR-8 ovarian, in the assay on RPMI-8226 leukemia and in the assay with SK-MEL-5 melanoma was over 100 µM in each case.

Take `Cc1cccc(N=C2NC(=O)C(CC(=O)Nc3ccc(C)cc3C)S2)c1` (stereo not drawn): the TGI in the assay on A549 NSCLC, in the assay on EKVX NSCLC, with HCT-15 colon, in the assay with OVCAR-8 ovarian, in the assay on RPMI-8226 leukemia and in the assay with SK-MEL-5 melanoma was over 100 µM throughout. The same molecule gave a total growth inhibition concentration (TGI) in the assay on SR leukemia of over 100 µM.

Take `CC(/C=C/NNC1=NC(c2ccccc2)C(c2ccccc2)=NN1)Sc1ccccc1N` (stereo not drawn): the TGI in the assay on A549 NSCLC is 28.7 µM; with EKVX NSCLC, 32.8 µM; in the assay with HCT-15 colon it was 19.8 µM; in the assay on OVCAR-8 ovarian, 19.5 µM; in the assay with RPMI-8226 leukemia it was over 100 µM; in the assay on SK-MEL-5 melanoma, 23.6 µM. For the same molecule, the concentration for total growth inhibition (TGI) with SR leukemia was 21 µM.

As for `COc1c(Sc2ccccc2)cc(Sc2ccccc2)c2cccnc12`, the TGI with A549 NSCLC is over 100 µM; with EKVX NSCLC, over 100 µM; with HCT-15 colon it was 49.3 µM; in the assay with OVCAR-8 ovarian, over 100 µM; with RPMI-8226 leukemia it was 50 µM; in the assay with SK-MEL-5 melanoma, 30.5 µM.

`COc1ccc2ccccc2c1CN1CCOCCOCCN(Cc2c(OC)ccc3ccccc23)CCOCCOCC1`: the TGI is over 100 µM in the assay with A549 NSCLC; over 100 µM in the assay with EKVX NSCLC; over 100 µM in the assay with HCT-15 colon; over 100 µM with OVCAR-8 ovarian; 73.2 µM in the assay with RPMI-8226 leukemia; over 53.6 µM in the assay on SK-MEL-5 melanoma. This molecule also came in with a TGI in the assay with SR leukemia of over 100 µM.

Turning to `Nc1ccc(C(=O)CC2(O)C(=O)Nc3c(Cl)cc(Cl)cc32)cc1` (stereo not drawn), the TGI with A549 NSCLC, in the assay with EKVX NSCLC, with HCT-15 colon, in the assay with OVCAR-8 ovarian and in the assay on RPMI-8226 leukemia was over 100 µM each time.

Consider `COC(=O)C(=O)C(C(=O)C(N)=O)c1nc2ccc(C(=O)c3ccccc3)cc2[nH]c1=O` (stereo not drawn), for which the TGI with A549 NSCLC, with EKVX NSCLC, in the assay with HCT-15 colon, in the assay with MCF7 breast, in the assay with NCI/ADR-RES ovarian and in the assay on OVCAR-8 ovarian was over 100 µM each time. The TGI with RPMI-8226 leukemia, in the assay with SK-MEL-5 melanoma and in the assay on SR leukemia was over 100 µM each time.

On to `Cc1c(C(=O)CC(=O)C(=O)Nc2cc(Cl)ccc2Cl)[n+](=O)c2ccccc2n1[O-]`, for which the TGI is over 100 µM in the assay on A549 NSCLC; over 100 µM in the assay on EKVX NSCLC; 90.2 µM in the assay on HCT-15 colon; over 100 µM in the assay with OVCAR-8 ovarian; 57.8 µM with RPMI-8226 leukemia; over 100 µM in the assay with SK-MEL-5 melanoma. In the assay with SR leukemia, the TGI was determined as 63.6 µM.

`CC1=NOC(=O)C1N=Nc1ccc(Br)c(C)c1` (stereo not drawn): the TGI in the assay with A549 NSCLC was determined as 46 µM; in the assay with EKVX NSCLC it was 32 µM; with HCT-15 colon, 41.6 µM; in the assay on OVCAR-8 ovarian it was 32.7 µM; with RPMI-8226 leukemia, 40.7 µM; with SK-MEL-5 melanoma, 25.4 µM.

The TGI is the concentration at which net growth stops. The low end stands for more potent growth arrest, the high end for less potent growth arrest. What is called GI50 is the concentration giving 50% growth inhibition.
